Assay [1] deals with HAP1 MTAP-deleted cell line. Briefly: Viability assay, MTAP-deleted cell line. In kind it is cell-based. The following applies: Homo sapiens, HAP1, viability assay, MTAP-deleted cell line; read-out: HAP1 MTAP deleted viability. The source says: Table 1 additionally indicates IC50 values in a viability assay for the MTAP-deleted cell line (column 10), indicating the effect of treatment with compound on cell survival.

For assay [2], the target named is T1, PRMT5 (Homo sapiens, UniProt O14744).
T1 construct: purchased Viva (custom protein)
T1 sequence (O14744 whole entry): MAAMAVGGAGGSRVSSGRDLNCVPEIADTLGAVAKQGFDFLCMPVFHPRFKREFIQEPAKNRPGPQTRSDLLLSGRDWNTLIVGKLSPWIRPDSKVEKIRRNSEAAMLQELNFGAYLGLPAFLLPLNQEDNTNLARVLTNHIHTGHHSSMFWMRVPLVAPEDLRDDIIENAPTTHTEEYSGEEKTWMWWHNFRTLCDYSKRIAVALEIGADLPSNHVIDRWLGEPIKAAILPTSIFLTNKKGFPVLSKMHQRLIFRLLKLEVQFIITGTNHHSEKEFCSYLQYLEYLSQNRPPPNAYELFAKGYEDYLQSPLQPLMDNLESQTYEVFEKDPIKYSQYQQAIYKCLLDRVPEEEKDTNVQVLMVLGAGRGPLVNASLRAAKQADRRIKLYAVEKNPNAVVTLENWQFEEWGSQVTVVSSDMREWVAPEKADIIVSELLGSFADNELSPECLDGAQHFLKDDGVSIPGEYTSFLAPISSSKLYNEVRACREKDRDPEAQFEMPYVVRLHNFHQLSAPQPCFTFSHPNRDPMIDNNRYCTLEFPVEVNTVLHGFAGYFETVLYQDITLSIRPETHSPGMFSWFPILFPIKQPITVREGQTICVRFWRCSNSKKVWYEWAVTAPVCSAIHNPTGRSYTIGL
T1 sequence (Q9BQA1 whole entry partner): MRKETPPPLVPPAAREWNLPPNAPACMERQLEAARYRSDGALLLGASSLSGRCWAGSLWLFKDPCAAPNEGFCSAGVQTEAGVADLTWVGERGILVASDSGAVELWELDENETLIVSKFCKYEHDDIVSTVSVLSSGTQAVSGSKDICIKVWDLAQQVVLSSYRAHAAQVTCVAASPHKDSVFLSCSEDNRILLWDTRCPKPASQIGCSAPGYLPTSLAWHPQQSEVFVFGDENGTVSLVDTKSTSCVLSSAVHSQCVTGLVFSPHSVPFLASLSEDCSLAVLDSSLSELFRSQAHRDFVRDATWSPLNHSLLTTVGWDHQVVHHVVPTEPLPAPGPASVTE
As to the kind of experiment: PRMT5 biochemical IC50 assay with MTA as cofactor. The note with it: PRMT5, MTA as cofactor; read-out: MTA IC50.

In assay [3] the target is T1, PRMT5. Briefly: PRMT5 biochemical IC50 assay with no cofactor. The note with it: PRMT5, no cofactor; read-out: No Cofactor/rel IC50. The source says:
Table 1 indicates IC50 values (μM) against PRMT5 for exemplary compounds in the presence of SAM as cofactor, with no cofactor, and with MTA as cofactor, respectively (columns 4-6). […] Ki values can be calculated from the IC50 values as described in the Examples section. As detailed in the Examples section, for the assay performed in the presence of SAM, IC50=Ki×1.5 (Ki=IC50/1.5).

For assay [4], the system named is HAP1 MTAP-intact cell line. Briefly: SDMA in-cell western assay, HAP1 MTAP-intact. In kind it is cell-based. The note with it: Homo sapiens, HAP1, SDMA in-cell western, HAP1 MTAP-intact; read-out: MTAP HAP1 intact IC50. Put shortly: (§1)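 Readout: in-cell western detection of SDMA. Cells: HAP1 expressing endogenous MTAP and an MTAP-null HAP1 counterpart. Output: IC50.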

Assay [5] relates to HAP1 MTAP-deleted cell line. Briefly: SDMA in-cell western assay, HAP1 MTAP-deleted. It is filed as cell-based. The note with it: for pIC50: Homo sapiens, HAP1, SDMA in-cell western, HAP1 MTAP-deleted, read-out: HAP1 MTAP deleted IC50; for MTAP intact/deleted ratio: IC50 ratio HAP1 MTAP-intact / HAP1 MTAP-deleted, SDMA in-cell western. The procedure, abridged: as §1
Assay [6] has as its target T1, PRMT5. Briefly: PRMT5 biochemical IC50 assay with SAM as cofactor. The note with it: PRMT5, SAM as cofactor; read-out: SAM IC50.

pIC50: −log10 of the molar value.

Regarding `COc1ccc([C@@H]2CC[C@@H](C)CN2C(=O)C(=O)Nc2cncc(C(N)=O)c2)cc1` (racemic) [Compound 228, rac-5-{2-[(2R,5S)-2-(4-Methoxyphenyl)-5-methylpiperidin-1-yl]-2-oxoacetamido}pyridine-3-carboxamide], the pIC50 in assay [1] was 5.00 to 6.00; in assay [2], 6.30 to 7.30; in assay [3] it was 6.30 to 7.30; in assay [4] it was < 6.00; in assay [5] it was 6.00 to 7.00; in assay [6] it was 6.30 to 7.30. In addition, the MTAP intact/deleted ratio result in assay [5] was “A (an IC50 ratio greater than or equal to 10 fold)”.

In the case of `C[C@@H]1C[C@H](c2ccccc2)N(C(=O)C(=O)Nc2cncc(C(N)=O)c2)C[C@@H]1C` (racemic) [Compound 229, 5-[[2-[(2S,4S,5S)-4,5-dimethyl-2-phenyl-1-piperidyl]-2-oxo-acetyl]amino]pyridine-3-carboxamide], the pIC50 in assay [1] was < 5.00; in assay [2], 6.30 to 7.30; in assay [3], < 6.30; in assay [4], < 6.00; in assay [5], < 6.00; in assay [6], < 6.30. The MTAP intact/deleted ratio entry in assay [5] is “B (an IC50 ratio greater than or equal to 3 fold but lower than 10 fold)”.

As for `COc1ccc([C@@H]2CC[C@@H](C)CN2C(=O)C(=O)Nc2cncc(C(N)=O)c2)cc1OC` (racemic) [Compound 230, rac-5-{2-[(2R,5S)-2-(3,4-Dimethoxyphenyl)-5-methylpiperidin-1-yl]-2-oxoacetamido}pyridine-3-carboxamide], the pIC50 in assay [1] is 5.00 to 6.00; in assay [2], > 7.30; in assay [3], 6.30 to 7.30; in assay [4], < 6.00; in assay [5] it was 6.00 to 7.00; in assay [6], 6.30 to 7.30. The MTAP intact/deleted ratio entry in assay [5] was “A (an IC50 ratio greater than or equal to 10 fold)”.

With `C[C@@H]1C[C@H](c2ccccc2)N(C(=O)C(=O)Nc2cncc(C(N)=O)c2)C[C@H]1C` (racemic) [Compound 231, 5-[[2-[(2R,4R,5S)-4,5-dimethyl-2-phenyl-1-piperidyl]-2-oxo-acetyl]amino]pyridine-3-carboxamide], the pIC50 is < 5.00 in assay [1]; > 7.30 in assay [2]; 6.30 to 7.30 in assay [3]; < 6.00 in assay [4]; 6.00 to 7.00 in assay [5]; 6.30 to 7.30 in assay [6]. For the same molecule, the MTAP intact/deleted ratio result in assay [5] was “A (an IC50 ratio greater than or equal to 10 fold)”.

`C[C@@H]1CC[C@@H](c2ccc3nccn3c2)N(C(=O)C(=O)Nc2cncc(C(N)=O)c2)C1` (racemic) [Compound 234, rac-5-{2-[(2R,5S)-2-{Imidazo[1,2-a]pyridin-6-yl}-5-methylpiperidin-1-yl]-2-oxoacetamido}pyridine-3-carboxamide]: the pIC50 in assay [1] is < 5.00; in assay [2], 6.30 to 7.30; in assay [3] it was 6.30 to 7.30; in assay [4], < 6.00; in assay [5], < 6.00; in assay [6], 6.30 to 7.30. The MTAP intact/deleted ratio result in assay [5] is on record as “C (an IC50 ratio of less than 3 fold)”.

For the molecule `Cc1cc(NC(=O)C(=O)N2C[C@H](C)CC[C@H]2c2ccnn2C)cnc1N` (racemic) [Compound 235, N-(6-amino-5-methyl-3-pyridyl)-2-[(2R,5S)-5-methyl-2-(2-methylpyrazol-3-yl)-1-piperidyl]-2-oxo-acetamide], the pIC50 is < 5.00 in assay [1]; 6.30 to 7.30 in assay [2]; 6.30 to 7.30 in assay [3]; < 6.00 in assay [4]; < 6.00 in assay [5]; 6.30 to 7.30 in assay [6]. Moreover, the MTAP intact/deleted ratio result in assay [5] is “B (an IC50 ratio greater than or equal to 3 fold but lower than 10 fold)”.

On to `COc1ccc([C@@H]2CC[C@@H](C)CN2C(=O)C(=O)Nc2cncc(C(N)=O)c2)cc1C#N` (racemic) [Compound 237, rac-5-{2-[(2R,5S)-2-(3-Cyano-4-methoxyphenyl)-5-methylpiperidin-1-yl]-2-oxoacetamido}pyridine-3-carboxamide], for which the pIC50 is < 5.00 in assay [1]; 6.30 to 7.30 in assay [2]; 6.30 to 7.30 in assay [3]; < 6.00 in assay [4]; < 6.00 in assay [5]; 6.30 to 7.30 in assay [6]. Also, the MTAP intact/deleted ratio entry in assay [5] is given as “B (an IC50 ratio greater than or equal to 3 fold but lower than 10 fold)”.

Regarding `C[C@@H]1CC[C@@H](c2ccc(Cn3ccnc3)cc2)N(C(=O)C(=O)Nc2cncc(C(N)=O)c2)C1` (racemic) [Compound 238, rac-5-{2-[(2R,5S)-2-{4-[(1H-Imidazol-1-yl)methyl]phenyl}-5-methylpiperidin-1-yl]-2-oxoacetamido}pyridine-3-carboxamide], the pIC50 in assay [1] was 5.00 to 6.00; in assay [2], > 7.30; in assay [3], 6.30 to 7.30; in assay [4] it was < 6.00; in assay [5], 6.00 to 7.00; in assay [6], 6.30 to 7.30. In assay [5], the MTAP intact/deleted ratio result is on record as “A (an IC50 ratio greater than or equal to 10 fold)”.

On to `C[C@@H]1CC[C@@H](c2cccc(C#N)c2)N(C(=O)C(=O)Nc2cncc(C(N)=O)c2)C1` (racemic) [Compound 239, rac-5-{2-[(2R,5S)-2-(3-Cyanophenyl)-5-methylpiperidin-1-yl]-2-oxoacetamido}pyridine-3-carboxamide], for which the pIC50 in assay [1] was 5.00 to 6.00; in assay [2], > 7.30; in assay [3], 6.30 to 7.30; in assay [4] it was < 6.00; in assay [5], > 7.00; in assay [6] it was 6.30 to 7.30. Also, in assay [5], the MTAP intact/deleted ratio entry is listed as “A (an IC50 ratio greater than or equal to 10 fold)”.

In the case of `C[C@@H]1CC[C@@H](c2ccc3ccoc3c2)N(C(=O)C(=O)Nc2cncc(C(N)=O)c2)C1` (racemic) [Compound 241, rac-5-{2-[(2R,5S)-2-(1-Benzofuran-6-yl)-5-methylpiperidin-1-yl]-2-oxoacetamido}pyridine-3-carboxamide], the pIC50 in assay [1] was 5.00 to 6.00; in assay [2], > 7.30; in assay [3] it was 6.30 to 7.30; in assay [4], < 6.00; in assay [5], > 7.00; in assay [6], 6.30 to 7.30. Moreover, the MTAP intact/deleted ratio entry in assay [5] is on record as “A (an IC50 ratio greater than or equal to 10 fold)”.

For `C[C@@H]1CC[C@@H](c2ccc(Cl)c(Cl)c2)N(C(=O)C(=O)Nc2cncc(C(N)=O)c2)C1` (racemic) [Compound 243, rac-5-{2-[(2R,5S)-2-(3,4-Dichlorophenyl)-5-methylpiperidin-1-yl]-2-oxoacetamido}pyridine-3-carboxamide], the pIC50 in assay [1] was 5.00 to 6.00; in assay [2], > 7.30; in assay [3], 6.30 to 7.30; in assay [4], < 6.00; in assay [5], 6.00 to 7.00; in assay [6], 6.30 to 7.30. Further, the MTAP intact/deleted ratio entry in assay [5] is listed as “A (an IC50 ratio greater than or equal to 10 fold)”.

For the molecule `C[C@@H]1CC[C@@H](c2ccc(C#N)c(C3CC3)c2)N(C(=O)C(=O)Nc2cncc(C(N)=O)c2)C1` (racemic) [Compound 244, rac-5-{2-[(2R,5S)-2-(4-Cyano-3-cyclopropylphenyl)-5-methylpiperidin-1-yl]-2-oxoacetamido}pyridine-3-carboxamide], the pIC50 in assay [1] was 5.00 to 6.00; in assay [2] it was > 7.30; in assay [3], 6.30 to 7.30; in assay [4], < 6.00; in assay [5], > 7.00; in assay [6], 6.30 to 7.30. The MTAP intact/deleted ratio entry in assay [5] was “A (an IC50 ratio greater than or equal to 10 fold)”.

In the case of `C[C@@H]1CC[C@@H](c2ccc(C#N)cc2)N(C(=O)C(=O)Nc2cncc(C(N)=O)c2)C1` (racemic) [Compound 246, rac-5-{2-[(2R,5S)-2-(4-Cyanophenyl)-5-methylpiperidin-1-yl]-2-oxoacetamido}pyridine-3-carboxamide], the pIC50 is 5.00 to 6.00 in assay [1]; > 7.30 in assay [2]; 6.30 to 7.30 in assay [3]; < 6.00 in assay [4]; 6.00 to 7.00 in assay [5]; 6.30 to 7.30 in assay [6]. The MTAP intact/deleted ratio entry in assay [5] was “A (an IC50 ratio greater than or equal to 10 fold)”.

Turning to `C[C@@H]1CC[C@@H](c2cccc(F)c2)N(C(=O)C(=O)Nc2cncc(C(N)=O)c2)C1` (racemic) [Compound 247, rac-5-{2-[(2R,5S)-2-(3-Fluorophenyl)-5-methylpiperidin-1-yl]-2-oxoacetamido}pyridine-3-carboxamide], the pIC50 in assay [1] is 5.00 to 6.00; in assay [2], > 7.30; in assay [3] it was 6.30 to 7.30; in assay [4], < 6.00; in assay [5], > 7.00; in assay [6], 6.30 to 7.30. Moreover, the MTAP intact/deleted ratio result in assay [5] was “A (an IC50 ratio greater than or equal to 10 fold)”.
